How the values were obtained:
Type in all cases: in vivo
[1] = tested on: Echinochloa oryzacola Vasing.; test: Test Example 2: herbicidal activity, application during weed generation in submerged conditions (symbol A); conditions: Table 23; application herbicide amount 320 g/ha; grade 0-5 by criteria of Test Example 1
How it was run: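 Read-out: herbicidal effect on each species rated on a visual scale 3 weeks after treatment. Plants were raised together from seed in flooded alluvial soil (4 cm water) at 25° C. to 30° C. and treated at one to two leaves by water-surface application of diluted emulsion.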

[2] = tested on: Leptochloa chinensis; test: Test Example 3: herbicidal effect by foliage application, Wagner pot (symbol D); conditions: application herbicide amount 320 g/ha
How it was run: (§1)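 Scoring took place 3 weeks after application, using fixed criteria. Plants had been raised from seed for 14 days at 25 to 30 °C in submerged alluvial soil before a diluted emulsion of the test compound was sprayed uniformly on the leaves.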

[3] = tested on: Cyperus difformis; test: Test Example 3: herbicidal effect by foliage application, Wagner pot (symbol E); conditions: application herbicide amount 320 g/ha
How it was run: as §1

[4] = tested on: directly sowed rice plant; test: Test Example 3: effect on crop by foliage application, Wagner pot (symbol b); conditions: application herbicide amount 320 g/ha
How it was run: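 Plants are raised from seed in flooded paddy conditions: water stands 0.1–0.5 cm over alluvial soil, and the pot is kept in a greenhouse at 25–30 °C. Species sown are barnyardgrass (E. crus-galli var. crus-galli), Leptochloa chinensis, Cyperus difformis and rice.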

[5] = tested on: Setaria viridis; test: Test Example 4: herbicidal effect by soil treatment (symbol G); conditions: application herbicide amount 320 g/ha
How it was run: (§2)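 Seeds were sown in sterilized diluvial soil, covered with about 1.5 cm of soil, and the soil surface was sprayed with a water-diluted emulsion of the compound at a predetermined rate. Plants grew in a greenhouse at 25° C. to 30° C.; effects were scored visually 3 weeks after application.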

[6] = tested on: Avena fatua; test: Test Example 4: herbicidal effect by soil treatment (symbol I); conditions: application herbicide amount 320 g/ha
How it was run: as §2

[7] = tested on: Alopecurus myosuroides; test: Test Example 4: herbicidal effect by soil treatment (symbol J); conditions: application herbicide amount 320 g/ha
How it was run: as §2

[8] = tested on: Lolium multiflorum Lam.; test: Test Example 4: herbicidal effect by soil treatment (symbol K); conditions: application herbicide amount 320 g/ha
How it was run: as §2

[9] = tested on: Abutilon theophrasti; test: Test Example 4: herbicidal effect by soil treatment (symbol M); conditions: application herbicide amount 320 g/ha
How it was run: as §2

[10] = tested on: Amaranthus retroflexus; test: Test Example 4: herbicidal effect by soil treatment (symbol N); conditions: application herbicide amount 320 g/ha
How it was run: as §2

[11] = tested on: rice; test: Test Example 4: effect on crop by soil treatment (symbol b); conditions: application herbicide amount 320 g/ha
How it was run: (§3)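 Seeds were sown in spots on sterilized diluvial soil in a plastic box and covered with about 1.5 cm of soil. Plants were then grown in a greenhouse at 25° C. to 30° C.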

[12] = tested on: wheat; test: Test Example 4: effect on crop by soil treatment (symbol e); conditions: application herbicide amount 320 g/ha
How it was run: as §3

[13] = tested on: Avena fatua; test: Test Example 5: herbicidal effect by foliage application, plastic box (symbol I); conditions: 320 g/ha, 3 weeks after application
How it was run: (§4)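 Effect is rated 3 weeks after a foliar spray of water-diluted emulsion concentrate at a predetermined herbicide amount. Plants had grown 14 days in a 25° C. to 30° C. greenhouse from seed in sterilized diluvial soil.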

[14] = tested on: Stellaria media; test: Test Example 5: herbicidal effect by foliage application, plastic box (symbol P); conditions: 320 g/ha, 3 weeks after application
How it was run: as §4

[15] = tested on: corn; test: Test Example 5: effect on crop by foliage application, plastic box (symbol c); conditions: 320 g/ha, 3 weeks after application
How it was run: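 Greenhouse culture at 25° C. to 30° C. followed spot-like sowing into sterilized diluvial soil, with seed covered by roughly 1.5 cm of soil.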

[16] = tested on: Chenopodium album; test: Test Example 5: herbicidal effect by foliage application, plastic box (symbol O); conditions: 320 g/ha, 3 weeks after application
How it was run: as §4

SMILES	Herbicidal effect grade, A: Echinochloa oryzacola Vasing. [1]	herbicidal effect on D (Leptochloa chinensis), grade 0-5 [2]	herbicidal effect on E, grade 0-5 [3]	effect on crop b (directly sowed rice plant), grade 0-5 [4]	G (Setaria viridis) herbicidal effect grade [5]	I (Avena fatua) herbicidal effect grade [6]	J (Alopecurus myosuroides) herbicidal effect grade [7]	K (Lolium multiflorum Lam.) herbicidal effect grade [8]	M (Abutilon theophrasti) herbicidal effect grade [9]	N (Amaranthus retroflexus) herbicidal effect grade [10]	b (directly sowed rice plant) effect on crop grade [11]	e (wheat) effect on crop grade [12]	I: Avena fatua, herbicidal effect grade [13]	P: Stellaria media, herbicidal effect grade [14]	c: corn, effect on crop grade [15]	O: Chenopodium album, herbicidal effect grade [16]	also measured
C#CCON=C(C)CC1CC(O)=C(c2c(C)cc(C)cc2C)C1=O (stereo not shown) [1-019]	5 (Herbicidal ratio of 90% or more (almost completely withered))	5 (Herbicidal ratio of 90% or more (almost completely withered))	5 (Herbicidal ratio of 90% or more (almost completely withered))	5 (Herbicidal ratio of 90% or more (almost completely withered))	3 (Herbicidal ratio of 40% or higher and lower than 70%)	5 (Herbicidal ratio of 90% or more (almost completely withered))	5 (Herbicidal ratio of 90% or more (almost completely withered))	5 (Herbicidal ratio of 90% or more (almost completely withered))	4 (Herbicidal ratio of 70% or higher and lower than 90%)	3 (Herbicidal ratio of 40% or higher and lower than 70%)	5 (Herbicidal ratio of 90% or more (almost completely withered))	3 (Herbicidal ratio of 40% or higher and lower than 70%)	5 (Herbicidal ratio of 90% or more (almost completely withered))	4 (Herbicidal ratio of 70% or higher and lower than 90%)	5 (Herbicidal ratio of 90% or more (almost completely withered))		
CON=C(C)CC1CC(OC(=O)C(C)(C)CCl)=C(c2c(C)cc(C)cc2C)C1=O (stereo not shown) [1-016]	5 (Herbicidal ratio of 90% or more (almost completely withered))	5 (Herbicidal ratio of 90% or more (almost completely withered))	5 (Herbicidal ratio of 90% or more (almost completely withered))	5 (Herbicidal ratio of 90% or more (almost completely withered))	3 (Herbicidal ratio of 40% or higher and lower than 70%)	5 (Herbicidal ratio of 90% or more (almost completely withered))	5 (Herbicidal ratio of 90% or more (almost completely withered))	5 (Herbicidal ratio of 90% or more (almost completely withered))	5 (Herbicidal ratio of 90% or more (almost completely withered))	5 (Herbicidal ratio of 90% or more (almost completely withered))	5 (Herbicidal ratio of 90% or more (almost completely withered))	2 (Herbicidal ratio of 20% or higher and lower than 40%)	5 (Herbicidal ratio of 90% or more (almost completely withered))		4 (Herbicidal ratio of 70% or higher and lower than 90%)	2 (Herbicidal ratio of 20% or higher and lower than 40%)	
C=CCON=C(C)CC1CC(O)=C(c2c(C)cc(C)cc2C)C1=O (stereo not shown) [1-018]	5 (Herbicidal ratio of 90% or more (almost completely withered))	5 (Herbicidal ratio of 90% or more (almost completely withered))	3 (Herbicidal ratio of 40% or higher and lower than 70%)	5 (Herbicidal ratio of 90% or more (almost completely withered))	3 (Herbicidal ratio of 40% or higher and lower than 70%)	4 (Herbicidal ratio of 70% or higher and lower than 90%)	5 (Herbicidal ratio of 90% or more (almost completely withered))	5 (Herbicidal ratio of 90% or more (almost completely withered))	4 (Herbicidal ratio of 70% or higher and lower than 90%)	2 (Herbicidal ratio of 20% or higher and lower than 40%)	5 (Herbicidal ratio of 90% or more (almost completely withered))	4 (Herbicidal ratio of 70% or higher and lower than 90%)	5 (Herbicidal ratio of 90% or more (almost completely withered))	4 (Herbicidal ratio of 70% or higher and lower than 90%)	5 (Herbicidal ratio of 90% or more (almost completely withered))		
CON=C(C)CC1CC(OC(=O)COc2ccccc2)=C(c2c(C)cc(-c3ccc(Cl)cc3)cc2C)C1=O (mixture of isomers) [6-061]	5 (Herbicidal ratio of 90% or more (almost completely withered))	5 (Herbicidal ratio of 90% or more (almost completely withered))	5 (Herbicidal ratio of 90% or more (almost completely withered))	5 (Herbicidal ratio of 90% or more (almost completely withered))													G: Setaria viridis, herbicidal effect grade [5]: 5 (Herbicidal ratio of 90% or more (almost completely withered)); I: Avena fatua, herbicidal effect grade [6]: 4 (Herbicidal ratio of 70% or higher and lower than 90%); J: Alopecurus myosuroides, herbicidal effect grade [7]: 5 (Herbicidal ratio of 90% or more (almost completely withered)); K: Lolium multiflorum Lam., herbicidal effect grade [8]: 5 (Herbicidal ratio of 90% or more (almost completely withered)); M: Abutilon theophrasti, herbicidal effect grade [9]: 1 (Herbicidal ratio of 5% or higher and lower than 20%); N: Amaranthus retroflexus, herbicidal effect grade [10]: 3 (Herbicidal ratio of 40% or higher and lower than 70%); b: directly sowed rice plant, effect on crop grade [11]: 5 (Herbicidal ratio of 90% or more (almost completely withered)); e: wheat, effect on crop grade [12]: 2 (Herbicidal ratio of 20% or higher and lower than 40%); I: Avena fatua, herbicidal effect (criteria of Test Example 1) [13]: 5 (Herbicidal ratio of 90% or more (almost completely withered)); O: Chenopodium album, herbicidal effect (criteria of Test Example 1) [16]: 4 (Herbicidal ratio of 70% or higher and lower than 90%); P: Stellaria media, herbicidal effect (criteria of Test Example 1) [14]: 3 (Herbicidal ratio of 40% or higher and lower than 70%); c: corn, effect on crop (criteria of Test Example 1) [15]: 5 (Herbicidal ratio of 90% or more (almost completely withered))
CON=C(C)CC1CC(OC(=O)C(C)(C)Oc2ccccc2)=C(c2c(C)cc(C)cc2C)C1=O (stereo not shown) [1-017]	5 (Herbicidal ratio of 90% or more (almost completely withered))	5 (Herbicidal ratio of 90% or more (almost completely withered))	5 (Herbicidal ratio of 90% or more (almost completely withered))	5 (Herbicidal ratio of 90% or more (almost completely withered))	5 (Herbicidal ratio of 90% or more (almost completely withered))	5 (Herbicidal ratio of 90% or more (almost completely withered))	5 (Herbicidal ratio of 90% or more (almost completely withered))	5 (Herbicidal ratio of 90% or more (almost completely withered))	5 (Herbicidal ratio of 90% or more (almost completely withered))	5 (Herbicidal ratio of 90% or more (almost completely withered))	5 (Herbicidal ratio of 90% or more (almost completely withered))	2 (Herbicidal ratio of 20% or higher and lower than 40%)	5 (Herbicidal ratio of 90% or more (almost completely withered))		4 (Herbicidal ratio of 70% or higher and lower than 90%)	2 (Herbicidal ratio of 20% or higher and lower than 40%)	

Source: US11000033B2, “Ketone or oxime compound, and herbicide” (NISSAN CHEMICAL CORPORATION, priority 2014, dated 2021)
